According to patent publication US11008293B2, “5-carboxamide-2-thiobarbituric acids and use thereof as medicaments” (FONDAZIONE ISTITUTO ITALIANO DI TECNOLOGIA, priority 2017, dated 2021):

What was measured:
Assay type in all cases: cell-based
[1] = test system: A549; experiment: Antiproliferative activity on A549 cancer cells; conditions: Homo sapiens
[2] = test system: HeLa; experiment: Antiproliferative activity on HeLa cancer cells; conditions: Homo sapiens
[3] = test system: DU145; experiment: Antiproliferative activity on DU145 cancer cells; conditions: Homo sapiens, DU-145
[4] = test system: MCF7; experiment: Antiproliferative activity on MCF7 cancer cells; conditions: Homo sapiens

SMILES	IC50 [1]	IC50 [2]	IC50 [3]	IC50 [4]
COc1cc(NC(=O)c2c(O)n(-c3ccccc3)c(=S)n(-c3ccccc3)c2=O)cc(OC)c1O	17.5 ± 1.1 µM	18.1 ± 0.8 µM	26.7 ± 0.1 µM	53.5 ± 1.9 µM
O=C(Nc1ccc(O)cc1)c1c(O)n(-c2ccccc2)c(=S)n(-c2ccccc2)c1=O	37.1 ± 3.7 µM	42.9 ± 6.1 µM	42.5 ± 7.7 µM	66.1 ± 7.5 µM
COc1cccc(NC(=O)c2c(O)n(-c3ccccc3)c(=S)n(-c3ccccc3)c2=O)c1	6.9 ± 0.2 µM	8.5 ± 0.5 µM	12.5 ± 1.5 µM	14 ± 0.9 µM
O=C(Nc1cccc(O)c1)c1c(O)n(-c2ccccc2)c(=S)n(-c2ccccc2)c1=O	59.4 ± 6.1 µM	39.1 ± 0.7 µM	49.6 ± 2.7 µM	94.2 ± 3.1 µM
